Several values for one entry are separate records, joined by “and”; a condition that tells them apart may be missing. Equal entries are not always repeated. Toxic doses and inconclusive results are not listed. Rule as the data show it: active = T/C of 150% or more; inactive = T/C below 125%.
Tested on: L1210 leukemia ip in BDF1 mice, survival T/C
Experiment: NCI In Vivo Anticancer Drug Screen. Data for tumor model L1210 Leukemia (intraperitoneal) in B6D2F1 (BDF1) mice
Settings: endpoint: mean survival time, higher = longer survival
In short: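 Tumor was transplanted into mice, which were then dosed with test compound or vehicle alone. Survival was recorded for each group, and the treated figure was expressed relative to the control figure.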

[1] = dose: 25.0 mg/kg/injection, schedule: Q01DX009 (ip), vehicle: saline
[2] = dose: 50.0 mg/kg/injection, schedule: Q01DX009 (ip), vehicle: saline
[3] = dose: 100.0 mg/kg/injection, schedule: Q04DX003 (ip), vehicle: saline
[4] = dose: 200.0 mg/kg/injection, schedule: Q04DX003 (ip), vehicle: saline
[5] = dose: 100.0 mg/kg/injection, schedule: Q04DX002 (ip), vehicle: saline with Tween-80
[6] = dose: 100.0 mg/kg/injection, schedule: Q04DX003 (ip), vehicle: saline with Tween-80
[7] = dose: 200.0 mg/kg/injection, schedule: Q01DX009 (ip), vehicle: saline with Tween-80
[8] = dose: 200.0 mg/kg/injection, schedule: Q04DX002 (ip), vehicle: saline with Tween-80
[9] = dose: 200.0 mg/kg/injection, schedule: Q04DX003 (ip), vehicle: saline with Tween-80
[10] = dose: 400.0 mg/kg/injection, schedule: Q04DX002 (ip), vehicle: saline with Tween-80
[11] = dose: 400.0 mg/kg/injection, schedule: Q04DX003 (ip), vehicle: saline with Tween-80
[12] = dose: 100.0 mg/kg/injection, schedule: Q01DX009 (ip), vehicle: saline
[13] = dose: 200.0 mg/kg/injection, schedule: Q01DX009 (ip), vehicle: saline
[14] = dose: 400.0 mg/kg/injection, schedule: Q01DX009 (ip), vehicle: saline
[15] = dose: 400.0 mg/kg/injection, schedule: Q04DX003 (ip), vehicle: saline
[16] = dose: 100.0 mg/kg/injection, schedule: Q01DX001 (ip), vehicle: Klucel (hydroxypropylcellulose) (HPC)
[17] = dose: 200.0 mg/kg/injection, schedule: Q01DX001 (ip), vehicle: Klucel (hydroxypropylcellulose) (HPC)
[18] = dose: 400.0 mg/kg/injection, schedule: Q01DX001 (ip), vehicle: Klucel (hydroxypropylcellulose) (HPC)
[19] = dose: 100.0 mg/kg/injection, schedule: Q01DX001 (ip), vehicle: saline
[20] = dose: 200.0 mg/kg/injection, schedule: Q01DX001 (ip), vehicle: saline
[21] = dose: 400.0 mg/kg/injection, schedule: Q01DX001 (ip), vehicle: saline
[22] = dose: 100.0 mg/kg/injection, schedule: Q01DX001 (ip), vehicle: other
[23] = dose: 200.0 mg/kg/injection, schedule: Q01DX001 (ip), vehicle: other
[24] = dose: 400.0 mg/kg/injection, schedule: Q01DX001 (ip), vehicle: other

Measured: T/C

C1CC2(C34CCC(CC3)C4)CCC1C2
inactive: dose: 50.0 mg/kg/injection, schedule: Q01DX001 (ip), vehicle: carboxymethylcellulose (CMC) 105 % of control | dose: 100.0 mg/kg/injection, schedule: Q01DX001 (ip), vehicle: carboxymethylcellulose (CMC) 96 % of control | dose: 200.0 mg/kg/injection, schedule: Q01DX001 (ip), vehicle: carboxymethylcellulose (CMC) 105 % of control | dose: 400.0 mg/kg/injection, schedule: Q01DX001 (ip), vehicle: carboxymethylcellulose (CMC) 88 % of control

CC(=O)NN=C(C)C
inactive: [1] 102 % of control | [2] 111 % of control | dose: 50.0 mg/kg/injection, schedule: Q04DX003 (ip), vehicle: saline 99 % of control | [3] 99 % of control | [4] 99 % of control

CNC(=O)Oc1ccc(-c2ccccc2)cc1Cl
inactive: dose: 25.0 mg/kg/injection, schedule: Q01DX009 (ip), vehicle: saline with Tween-80 103 % of control and 106 % of control | dose: 50.0 mg/kg/injection, schedule: Q01DX009 (ip), vehicle: saline with Tween-80 94 % of control and 111 % of control | dose: 100.0 mg/kg/injection, schedule: Q01DX001 (ip), vehicle: saline with Tween-80 101 % of control | [5] 93 % of control and 101 % of control (2×) | [6] 98 % of control | dose: 200.0 mg/kg/injection, schedule: Q01DX001 (ip), vehicle: saline with Tween-80 93 % of control | [7] 94 % of control | [8] 96 % of control and 97 % of control and 100 % of control | [9] 95 % of control | dose: 400.0 mg/kg/injection, schedule: Q01DX001 (ip), vehicle: saline with Tween-80 104 % of control | [10] 103 % of control and 107 % of control and 113 % of control | [11] 98 % of control

CCN(CC)CC(=O)NCC(CCN1CCCCC1)(CC(C)C)c1cccc2ccccc12 (stereo unspecified)
inactive: [1] 102 % of control | [2] 105 % of control | [12] 114 % of control

CCCCCCOC(=O)C[n+]1cccc(C(N)=O)c1
inactive: [3] 95 % of control

CCC[CH2][Sn]([CH2]CCC)([O][Sn]([CH2]CCC)([CH2]CCC)[S]C#N)[S]C#N
inactive: dose: 6.25 mg/kg/injection, schedule: Q01DX009 (ip), vehicle: Klucel (hydroxypropylcellulose) (HPC) 95 % of control | dose: 12.5 mg/kg/injection, schedule: Q01DX009 (ip), vehicle: Klucel (hydroxypropylcellulose) (HPC) 97 % of control | dose: 25.0 mg/kg/injection, schedule: Q01DX009 (ip), vehicle: Klucel (hydroxypropylcellulose) (HPC) 89 % of control

CCOC(=O)C1C(=O)NC(=O)CC1C (stereo unspecified)
inactive: [6] 98 % of control | [7] 100 % of control | [9] 96 % of control | dose: 400.0 mg/kg/injection, schedule: Q01DX009 (ip), vehicle: saline with Tween-80 101 % of control | [11] 104 % of control

CCOC(=O)/C=C(/OC(=O)c1ccccc1)c1ccccc1
inactive: dose: 100.0 mg/kg/injection, schedule: Q01DX001 (ip), vehicle: acetone 95 % of control | [12] 107 % of control | dose: 200.0 mg/kg/injection, schedule: Q01DX001 (ip), vehicle: acetone 97 % of control | [13] 107 % of control | dose: 400.0 mg/kg/injection, schedule: Q01DX001 (ip), vehicle: acetone 103 % of control | [14] 94 % of control

COC(=O)C1C2C3CC(C4CC43)C12 (stereo unspecified)
inactive: [12] 92 % of control | [3] 93 % of control | [13] 92 % of control | [4] 107 % of control | [14] 96 % of control | [15] 96 % of control

CCCC(C(O)CC)[N+](=O)[O-] (stereo unspecified)
inactive: [16] 95 % of control | [17] 97 % of control | [18] 101 % of control

CCCc1cc2c3c(c(=O)oc2cc1OC)CCCC3
inactive: [6] 93 % of control | [9] 104 % of control | [11] 93 % of control

CC(C)COC1CCCC(Oc2ccccc2)O1 (stereo unspecified)
inactive: dose: 55.0 mg/kg/injection, schedule: Q01DX Z (ip), vehicle: methylcellulose (MC) 92 % of control | dose: 83.0 mg/kg/injection, schedule: Q01DX Z (ip), vehicle: methylcellulose (MC) 100 % of control | dose: 125.0 mg/kg/injection, schedule: Q01DX Z (ip), vehicle: methylcellulose (MC) 91 % of control

COC(C(=O)O)c1ccc(Br)cc1 (stereo unspecified)
inactive: dose: 75.0 mg/kg/injection, schedule: Q01DX001 (ip), vehicle: acetone 95 % of control | dose: 150.0 mg/kg/injection, schedule: Q01DX001 (ip), vehicle: acetone 94 % of control

ClC1=C(Cl)C2(Cl)C3(Cl)C(Cl)=C(Cl)C(Cl)(C34OCCO4)C2(Cl)C12OCCO2 (stereo unspecified)
inactive: dose: 50.0 mg/kg/injection, schedule: Q01DX001 (ip), vehicle: saline 107 % of control | [19] 105 % of control | [12] 90 % of control | [3] 98 % of control | [20] 94 % of control | [13] 93 % of control | [4] 97 % of control | [21] 100 % of control | [14] 92 % of control | [15] 103 % of control

O=S(=O)(Cc1ccccc1)C(=C(N1CCCCC1)N1CCCCC1)S(=O)(=O)Cc1ccccc1
inactive: [19] 102 % of control | [12] 94 % of control | [20] 104 % of control | [13] 93 % of control | [21] 98 % of control | [14] 96 % of control

COC1OC2COC(c3ccccc3)OC(OC)(C2)C1NC(C)=O (stereo unspecified)
inactive: [16] 102 % of control | [17] 101 % of control | [18] 98 % of control

CCC(C)NC(=O)/C=C\C(=O)O (stereo unspecified)
inactive: [5] 95 % of control | [8] 92 % of control | [10] 100 % of control

CC(=O)NC(CSSCC(N)C(=O)O)C(=O)O (stereo unspecified) (tested in a mixture with another compound)
inactive: dose: 12.5 mg/kg/injection, schedule: Q04DX002 (ip), vehicle: DMSO 93 % of control | dose: 25.0 mg/kg/injection, schedule: Q04DX002 (ip), vehicle: DMSO 103 % of control | dose: 50.0 mg/kg/injection, schedule: Q04DX002 (ip), vehicle: DMSO 93 % of control

Cc1ccc(NC(=O)c2ccccc2)cc1
inactive: dose: 100.0 mg/kg/injection, schedule: Q04DX002 (ip), vehicle: Klucel (hydroxypropylcellulose) (HPC) 95 % of control | dose: 200.0 mg/kg/injection, schedule: Q04DX002 (ip), vehicle: Klucel (hydroxypropylcellulose) (HPC) 95 % of control

CC/C(C)=C\CC/C(C)=C\COc1ccccc1[N+](=O)[O-]
inactive: dose: 100.0 mg/kg/injection, schedule: Q01DX009 (ip), vehicle: carboxymethylcellulose (CMC) 100 % of control | dose: 200.0 mg/kg/injection, schedule: Q01DX009 (ip), vehicle: carboxymethylcellulose (CMC) 100 % of control | dose: 400.0 mg/kg/injection, schedule: Q01DX009 (ip), vehicle: carboxymethylcellulose (CMC) 98 % of control

Brc1cccc2nc(/C=C\c3ccccc3)ccc12
inactive: [22] 98 % of control | [23] 95 % of control | [24] 89 % of control

Cc1ncc(CO)c(/C=N\OCc2cc(Cl)sc2Cl)c1O
inactive: dose: 100.0 mg/kg/injection, schedule: Q04DX003 (ip), vehicle: Klucel (hydroxypropylcellulose) (HPC) 93 % of control | dose: 200.0 mg/kg/injection, schedule: Q04DX003 (ip), vehicle: Klucel (hydroxypropylcellulose) (HPC) 93 % of control | dose: 400.0 mg/kg/injection, schedule: Q04DX003 (ip), vehicle: Klucel (hydroxypropylcellulose) (HPC) 104 % of control

CC(CN(C)C)C(=O)/C=C/c1ccccc1 (stereo unspecified)
inactive: dose: 12.5 mg/kg/injection, schedule: Q01DX009 (ip), vehicle: saline 103 % of control | [1] 104 % of control | [2] 107 % of control

CCOC(=O)C(C(=O)OCC)C(CC(=O)c1ccccc1)c1ccccc1 (stereo unspecified)
inactive: dose: 100.0 mg/kg/injection, schedule: Q01DX009 (ip), vehicle: Klucel (hydroxypropylcellulose) (HPC) 98 % of control | dose: 200.0 mg/kg/injection, schedule: Q01DX009 (ip), vehicle: Klucel (hydroxypropylcellulose) (HPC) 93 % of control | dose: 400.0 mg/kg/injection, schedule: Q01DX009 (ip), vehicle: Klucel (hydroxypropylcellulose) (HPC) 94 % of control

CCCCCCCCCCCCCCCCCCOC(=O)c1ccco1
inactive: [22] 96 % of control | [23] 105 % of control | [24] 92 % of control
